From patent US5840929A, “C4 methoxy ether derivatives of paclitaxel” (Bristol-Myers Squibb Company, priority 1996, dated 1998)

Test system: HCT-116 human colon carcinoma cells
Assay: In vitro cytotoxicity, XTT assay in HCT-116 human colon carcinoma cells (72 h)
Format: cell-based
Settings: for Ratio of IC50 of Compound I over Paclitaxel: HCT-116, ratio to paclitaxel IC50; for IC50: Homo sapiens, HCT-116, XTT, 72 hours, 4000 cells/well, read-out: IC50 HCT-116 (drug concentration required to inhibit cell proliferation to 50% of untreated control cells)
Description: Cytotoxicity was assessed in HCT-116 human colon carcinoma cells by XTT (2,3-bis(2-methoxy-4-nitro-5-sulfphenyl)-5-[(phenylamino)carbonyl]2H-tetrazolium hydroxide) assay as reported in D. A. Scudiero, et al., "Evaluation of soluble tetrazolium/formazan assay for cell growth and drug sensitivity in culture using human and other tumor cell lines," Cancer Res. 48:4827-4833, 1988. Cells were plated at 4000 cells/well in 96 well microtiter plates and 24 hours later drugs were added and serial diluted. The cells were incubated at 37° C. for 72 hours at which time the tetrazolium dye, XTT, was added. A dehydrogenase enzyme in live cells reduces the XTT to a form that absorbs light at 450 nm which can be quantitated spectrophotometrically. The greater the absorbance, the greater the number of live cells. The results are expressed in Table I as an IC50, which is the drug concentration required to inhibit cell proliferation (i.e., absorbance at 450 nm) to 50% of that of untreated control cells.

CO[C@@]12CO[C@@H]1C[C@H](O)[C@@]1(C)C(=O)[C@H](OC(C)=O)C3=C(C)[C@@H](OC(=O)[C@H](O)[C@@H](NC(=O)OC(C)(C)C)c4ccco4)C[C@@](O)([C@@H](OC(=O)c4ccccc4)[C@H]21)C3(C)C [Compound Ib, 4-deacetyloxy-4-methoxy-3'-desphenyl-3'-(2-furyl)-3'-N-debenzoyl-3'-N-butoxycarbonyl(paclitaxel)]
Ratio of IC50 of Compound I over Paclitaxel: 1.61
IC50: 3.7 nM

CO[C@@]12CO[C@@H]1C[C@H](O)[C@@]1(C)C(=O)[C@H](OC(C)=O)C3=C(C)[C@@H](OC(=O)[C@H](O)[C@@H](NC(=O)c4ccccc4)c4ccccc4)C[C@@](O)([C@@H](OC(=O)c4ccccc4)[C@H]21)C3(C)C [Compound Ia, 4-deacetyloxy-4-methoxypaclitaxel]
Ratio of IC50 of Compound I over Paclitaxel: 21.7
IC50: 34.7 nM

CO[C@@]12CO[C@@H]1C[C@H](O)[C@@]1(C)C(=O)[C@H](OC(C)=O)C3=C(C)[C@@H](OC(=O)[C@H](O)[C@@H](NC(=O)OC(C)(C)C)c4ccccc4)C[C@@](O)([C@@H](OC(=O)c4ccccc4)[C@H]21)C3(C)C [Compound Ic, 4-deacetyloxy-4-methoxy-3'-N-debenzoyl-3'-N-butoxycarbonyl(paclitaxel)]
Ratio of IC50 of Compound I over Paclitaxel: 1.69
IC50: 2.2 nM

CC(=O)O[C@H]1C(=O)[C@@]2(C)[C@H]([C@H](OC(=O)c3ccccc3)[C@]3(O)C[C@H](OC(=O)[C@H](O)[C@@H](NC(=O)c4ccccc4)c4ccccc4)C(C)=C1C3(C)C)[C@]1(OC(C)=O)CO[C@@H]1C[C@@H]2O [Paclitaxel, paclitaxel]
IC50: 1.3 to 2.3 nM
